According to USRE41998E1, “Compositions and methods of treatment of sympathetically maintained pain” (Arclon Therapeutics, Inc., priority 1990, dated 2010):
Read-outs that look alike come from different tables or passages of the source. One block for each molecule: values may come before it.

Experiments:
[1] = system: α1 and α2 receptors; conditions: cited from earlier work
[2] = system: patients with SMP; conditions: cited from earlier work; for effect on pain in patients with SMP: in vivo
[3] = system: healthy control subjects; experiment: Intradermal norepinephrine and phenylephrine in normal skin of control subjects; assay type: in vivo, human
Experimental: Five normal subjects were used as controls.
Effects of Intradermal Norepinephrine and Phenylephrine: In two patients, intradermal injections of the non-specific α-adrenergic agonist norepinephrine (5 μg in 10 μl normal saline) or the α-adrenergic agonist phenylephrine (10 μg in 10 μl normal saline) were made at a patch site immediately after removing the patch. […] All injection were made in a single-blinded fashion. The patients and control subjects were instructed to rate the magnitude of any evoked pain and resultant hyperalgesia on a verbal scale from 0 to 10.

[4] = system: patients with SMP; experiment: Intradermal norepinephrine and phenylephrine in SMP patients (clonidine patch site, normal site)
Experimental: Effects of Intradermal Norepinephrine and Phenylephrine: In two patients, intradermal injections of the non-specific α-adrenergic agonist norepinephrine (5 μg in 10 μl normal saline) or the α-adrenergic agonist phenylephrine (10 μg in 10 μl normal saline) were made at a patch site immediately after removing the patch. Norepinephrine and phenylephrine injections were also made at control sites on the patients' normal limb and into the normal skin of 4 healthy control subjects. […] All injection were made in a single-blinded fashion. The patients and control subjects were instructed to rate the magnitude of any evoked pain and resultant hyperalgesia on a verbal scale from 0 to 10.

[5] = system: patients with SMP; experiment: Intravenous phentolamine block in patients with SMP; assay type: in vivo, human
Experimental: If peripheral α-adrenergic receptors are blocked completely, skin temperature would approach core temperature. Such a blockage would produce profound hypotension and a reflex tachycardia. […] This dose ranged from 35 mg to 45 mg over a 30 minute period.
The heart rate, systolic and diastolic blood pressure changes produced by phentolamine in a typical patient were relatively mild. In the first seven patients phentolamine alone was administered.
The patient was diagnosed as having SMP and then underwent local LABSG, and the administration of phentolamine systemically by intravenous injection.
Seventeen patients received both phentolamine and LABSG. The time of maximum relief of stimulus evoked pain correlated highly with the time at which there was maximum relief of stimulus-independent pain. All pain scores were converted to percent pain relief. The peak relief of stimulus independent pain for the LABSG compares favorably to the peak relief obtained from the phentolamine block. […] Patients with less than 50% pain relief from both procedures were considered to have pain independent of SMP. There was a high correlation of the results of the two procedures (r=0.78).

[6] = in vivo; cited from earlier work
[7] = system: normal subject
Experimental: Five normal subjects were used as controls. One subject was used to investigate the effect of clonidine on normal skin (i.e., the top of the foot). The four remaining subjects were used to assess the effect of intradermal norepinephrine and phenylephrine in normal skin.
To exclude further local anesthetic effects of clonidine, a clonidine patch was applied to the top of a normal subject's foot and sensory testing was performed prior to and 40 hours after the patch application.

[8] = system: patient with SMP
[9] = system: patients with SMP or SIP
Text: Patient Selection and Control Subjects: Six normotensive patients with chronic ongoing pain and cutaneous hyperalgesia to mechanical and cooling stimuli following soft tissue or nerve trauma were examined. All patients had previously undergone sympathetic blocks (i.e., local anesthetic blockade of the appropriate sympathetic ganglia) to assess the involvement of the sympathetic nerves in their pain state.
A series of 2-7 patches were applied consecutively to different sites within the hyperalgesic zone. Each patch was left in place for 2-10 days within this affected zone. Prior to, during and immediately after drug application, the following parameters were monitored: heart rate, blood pressure, ongoing pain and pain to mechanical and cold stimuli.
The scale consisted of a 100 mm line where “no pain” and “most intense pain” were indicated on the left and right ends of the scale respectively. […] The mechanical stimuli included innocuous brushing with a camel's hair brush and innocuous pressure from the 206 g weight of a 13 mm diameter (i.e., 2N) brass probe. Pain thresholds to mechanical stimuli were determined in the area within and surrounding the patch sites using calibrated von Frey filaments. The cooling stimulus consisted of small drops of acetone lightly placed onto the patient's skin. […] 3) Tactile sensibility: To rule out local anesthetic effects, the detection (touch) thresholds were determined in the area within the surrounding selected patch sites using calibrated von Frey filaments. In addition, the patient's ability to distinguish the blunt from the sharp ends of a pin was also assessed. The patients were instructed to close their eyes during the hyperalgesia and von Frey threshold testing procedures.

Structure (SMILES): CC(COc1ccccc1)N(CCCl)Cc1ccccc1 (stereo not shown) [phenoxybenzamine]
potency in blocking α1 (postsynaptic) receptors relative to α2 receptors [1]: approximately 100 fold | effect on pain in patients with SMP [2]: can be effective in relieving pain

Structure (SMILES): NC[C@H](O)c1ccc(O)c(O)c1 [norepinephrine]
pain and hyperalgesia after intradermal injection into the leg ([3]; four control subjects, norepinephrine 5 μg): mild, short lasting pain and no hyperalgesia | pain or hyperalgesia in normal subjects ([2]; intradermal injection): does not cause pain or hyperalgesia | effect on pain and hyperalgesia relieved by sympathectomy or sympathetic block ([2]; intradermal injection, patients): rekindles the pain and hyperalgesia | pain evoked by injection at clonidine patch site ([4]; Case 1, intradermal 5 μg in 10 μl saline): intense, burning pain sensation | mechanical hyperalgesia rating at the patch site ([4]; Case 1, twenty-five minutes after injection): 3.5 out of 10 | pain and hyperalgesia after injection into normal limb ([4]; Cases 1 and 4, normal limb): evoked intense pain, but did not result in hyperalgesia

pulse rate change ([5]; patients pretreated with propranolol 1-2 mg): minimal increase
Structure (SMILES): Cc1ccc(N(CC2=NCCN2)c2cccc(O)c2)cc1 [phentolamine]
pain relief following the blocks (local anesthetic sympathetic ganglion block, i.v. phentolamine) ([5]; Example 3 cases 1-4 (case 2 had no phentolamine block)): 70-100% | effect of block on pain ([5]; Example 3 cases 5, 6 (SIP)): not affected | side effect: dizziness ([5]; IV phentolamine): 2 patients | side effect: headache ([5]; IV phentolamine): 3 patients | side effect: nasal stuffiness ([5]; IV phentolamine): 12 patients | pain relief in patients with SMP (preliminary studies) ([5]; cumulative dose 35 mg to 45 mg over a 30 minute period): effectively relieved pain | heart rate change ([5]; first seven patients, phentolamine alone): increased moderately | time for pain to return to within 75% of baseline ([5]; five patients with more than 50% pain relief from phentolamine block): 2 to 7 h | pain relief with the phentolamine block ([5]; one patient with 45% maximum relief with LABSG): no relief | mean pain relief ([5]; patients who had 50% or greater pain relief following LABSG): 75% | reduction in pain as measured by visual analysis scores ([5]; person, SMP right foot, IV, accumulated dose of 25 mg over 15 minutes): 80% | time course over which pain gradually returned ([5]; same patient): about three | time pain remained at low level ([5]; same patient, after last phentolamine dose): about two | patient's pain relieved ([5]; same patient, after two further injections each of 10 mg): over 80% | gradual decrease in stimulus-independent pain ([5]; same patient, first 4 boli IV, total dose 15 mg): about 50% | blood pressure change ([5]; supine, with or without propranolol): little effected | potency in inhibiting α1- relative to α2-adrenergic receptors [1]: three to five | plasma half-life [6]: approximately 20 minutes | effect on sympathetically-maintained pain and hyperalgesia ([2]; intravenous administration): rapidly abolishes sympathetically-maintained pain and hyperalgesia

Structure (SMILES): COc1cc2nc(N3CCN(C(=O)c4ccco4)CC3)nc(N)c2cc1OC [prazosin]
receptor subtype selectivity [1]: highly selective α1-blocking agent | effect on pain in patients with SMP [2]: can be effective in relieving pain

Structure (SMILES): Clc1cccc(Cl)c1N=C1NCCN1 [clonidine]
detection or pain threshold to mechanical stimuli in a normal subject ([7]; Example 2, test for local anesthetic effect): did not alter | pain and detection threshold to von Frey filaments ([7]; top of normal subject's foot, 40 hours after patch application): Neither the pain nor detection threshold to von Frey filaments were affected | time to reduction of pain evoked by deep pressure, light brushing and cooling stimuli ([8]; after patch application): 24 to 36 h | time to complete abolition of evoked pain ([8]; following patch application): ≤ 48 h | persistence of effect after removal of the patch ([8]; human, in vivo): more than 24 hours | adverse side effects, cardiovascular parameters ([8]; same patient): no adverse side effects or changes in cardiovascular parameters | hyperalgesia of skin surrounding the patch ([8]; same patient): remained hyperalgesic | relief of hyperalgesia in the skin underlying the patch ([8]; sciatic nerve injury patient, 0.2 or 0.3 mg/day patch, 6 patches, 2-10 days each): Complete relief | detection threshold to mechanical stimuli in the patient ([8]; test for local anesthetic effect): did not alter | mechanical detection thresholds inside and outside the patch site ([9]; Case 1): identical | pain threshold to von Frey filaments within the patch site ([9]; Case 1): approximated the patient's ‘normal’ pain threshold | ratings of stimulus-independent pain ([9]; Case 1): not affected | time hyperalgesia still absent after removing a patch ([9]; Case 1): at least 12 hours | Mechanical Hyperalgesia: post-clonidine ([9]; Case 1, SMP, lower extremity): − | Touch Detection Threshold: post-clonidine ([9]; Case 1, SMP, pre-clonidine 4): 4 bars | ability to distinguish sharp from blunt stimuli ([9]; Case 1, after patch removal): not affected | mechanical (brush, pressure) and cooling (acetone) stimuli at patch site ([9]; Case 1, after removal of patch applied for 36 hours): detected but were not painful | pain rating to light brushing at patch site ([9]; Case 1, after removal of patch, before norepinephrine injection, untreated skin 4 out of 10): 1 out of 10 | detection thresholds ([9]; Case 1, four patches (FIG. 2)): unchanged | hyperalgesia to mechanical stimuli ([9]; Case 1, four patches with quantitative sensory testing (FIG. 2)): greatly reduced and, in many cases, completely eliminated | return of hyperalgesia ([9]; Case 1, from patch application): within less than a week | time to reduction of mechanical hyperalgesia after patch applied ([9]; Case 1, noted by patient): 36 to 48 h | Mechanical Hyperalgesia: post-clonidine ([9]; Case 2, SMP, lower extremity): − | Touch Detection Threshold: post-clonidine ([9]; Case 2, SMP, pre-clonidine 1): 1 bars | Touch Detection Threshold: post-clonidine ([9]; Case 3, SMP, pre-clonidine 1.5): 1.5 bars | reduction of ongoing pain ([9]; Case 4): 50-75% | Mechanical Hyperalgesia: post-clonidine ([9]; Case 4, SMP, face): − | Touch Detection Threshold: post-clonidine ([9]; Case 4, SMP, pre-clonidine 0.5): 0.5 bars | relief of hyperalgesia throughout entire affected zone ([9]; Case 4, application to the upper lip): complete relief of hyperalgesia | Mechanical Hyperalgesia: post-clonidine ([9]; Case 5, SIP, upper extremity): + | hyperalgesia and ongoing pain ([9]; Case 5, SIP, application to palmar aspect of the hand): Neither the patient's hyperalgesia nor ongoing pain were improved | Touch Detection Threshold: post-clonidine ([9]; Case 5, SIP, pre-clonidine 1): 1 bars | hyperalgesia to cold stimuli ([9]; Case 6, SIP): not affected | Mechanical Hyperalgesia: post-clonidine ([9]; Case 6, SIP, lower extremity): + | reduction in ongoing pain and mechanical hyperalgesia to brush stimuli ([9]; Case 6, SIP, patches on dorsum of the foot): approximately 35% | Touch Detection Threshold: post-clonidine ([9]; Case 6, SIP, pre-clonidine 2): 2 bars | overall level of stimulus-independent pain ([9]; Cases 2, 3): did not report any reduction | extent of hyperalgesia relief ([9]; Cases 2, 3, zone greater than half of lower extremity): only eliminated hyperalgesia at or near the site of drug application | alteration in blood pressure or heart rate ([9]; any of the patients): No appreciable alteration | pain or hyperalgesia (summary) ([9]; cases 5 and 6, pain independent of the sympathetics): little effect on pain or hyperalgesia | skin reaction surrounding the patch site ([9]; following some patch applications, treatment discontinued in cases 1, 4): erythematous rash | mechanical and cold hyperalgesia at the site of drug administration (summary) ([9]; patients with SMP): significantly reduced mechanical and cold hyperalgesia | side effects from clonidine patches ([9]; six patients): minor

Structure (SMILES): CNC[C@H](O)c1cccc(O)c1 [phenylephrine]
pain and hyperalgesia after injections ([3]; control subjects, phenylephrine 10 μg): Only brief, mild pain sensations and no hyperalgesia | pain evoked at control site (volar forearm) ([4]; Case 4): moderate pain of shorter duration | ongoing level of pain ([4]; Case 4, approximately 25 minutes after injection): increased substantially | pain evoked by injection at clonidine patch site ([4]; Case 4, intradermal 10 μg in 10 μl saline, after 3 days of clonidine): intense stinging pain

Structure (SMILES): CC(C)NCC(O)COc1cccc2ccccc12 (stereo not shown) [propranolol]
effect on pain when added after α-adrenergic blockade ([5]; 0.5 mg intravenously, five minutes after last phentolamine dose): did not add appreciably to the analgesia | effect on pain in patients with SMP [2]: little effect on SMP
